Consider one compound from US9745360B2 (Sanofi, priority 2012, dated 2017).

Molecules are shown by their SMILES. In brackets after ≈: the same amount, converted by molar mass. Read-outs that look alike come from different tables or passages of the source. *1 amine or outer side, *2 acyl side, *3 side chain or, on linkers, in order; H or OH if unused. Where a SMILES comes first, the peptide text is derived from it. Side-chain parts run from the residue outwards. [ ]: non-standard residue; d: D form. The star is where a group is joined. γGlu = O=C(O)[C@H](CCC(=O)[*:2])N[*:1]; Palmitoyl = CCCCCCCCCCCCCCCC(=O)*; αMeK = C[C@](N)(CCCCN)C(=O)O; Aib = CC(C)(N)C(=O)O

The nature of series [1]: Chemical stability in solution, 7 days at 25° C., % remaining peptide. It is filed as physicochemical. The conditions noted are these: % remaining peptide after 7 days at 25° C. Here is the method: The chemical stability is expressed as “% remaining peptide”.
(§1) Solubility and chemical stability of peptidic compounds were assessed as described in Methods.

Series [2] relates to non-fasted female diabetic dbdb-mice. The experiment in a line: Glucose lowering in non-fasted female diabetic dbdb-mice. It is filed as in vivo. The conditions noted are these: 3 μg/kg s.c., at 240 min, kept to 480 min, baseline 20-22 mmol/l. The text has this:
Female diabetic dbdb-mice of mean non-fasted glucose value of 20-22 mmol/l and a body weight of 42 g+/−0.6 g (SEM) were used. Mice were individually marked and were adapted to housing conditions for at least one week.
3-5 days prior to study start mice were assigned to groups and cages (4 mice per cage, 8 per group, control group 16) according to their non-fasted glucose values to ensure even distribution of lower and higher values between groups (stratification). On the study day, mice were weighed and dosed (t=0). Immediately prior to compound administration feed was removed while water remained available, and a first blood sample at a tail incision was drawn (baseline). Further blood samples were drawn at the tail incision at 30, 60, 90, 120, 240, 360, and 480 min.
Statistical analyses are performed with Everstat Version 6.0 based on SAS by 2-way-ANOVA on repeated measures, followed by Dunnett's post-hoc test against vehicle-control. Differences are considered statistically significant at the p<0.05 level.

Series [3] has as its system female diabetic dbdb-mice. The experiment in a line: 4 weeks of treatment: glucose, HbA1c and oral glucose tolerance in female diabetic dbdb-mice (method 4). It is filed as in vivo. The conditions noted are these: 3 and 10 μg/kg s.c. once daily. Here is the method: 8 week old, female diabetic dbdb-mice of mean non-fasted glucose value of 14.5 mmol/l and a body weight of 37-40 g were used. Mice were individually marked and were adapted to housing conditions for at least one week. 7 days prior to study start, baseline values for non-fasted glucose and HbA1c were determined, 5 days prior to study start, mice were assigned to groups and cages (5 mice per cage, 10 per group) according to their HbA1c values to ensure even distribution of lower and higher values between groups (stratification).
Mice were treated for 4 weeks, by once daily subcutaneous administration 3 hours prior to the dark phase (6 pm to 6 am). Blood samples from a tail tip incision were obtained for HbA1c on study day 21 and oral glucose tolerance was assessed in the 4th week. Oral glucose tolerance test was done in the morning without prior extra compound administration to majorly assess the effect of chronic treatment and less of acute compound administration. Mice were fasted for 4 hours prior to oral glucose administration (2 g/kg, t=0 min). Blood samples were drawn prior to glucose administration and at 15, 30, 60, 90, 120, and 180 min thereafter. Feed was returned after the last blood sampling. Results are represented as change from baseline, glucose in mmol/l and HbA1c in %.
Statistical analyses are performed with Everstat Version 6.0 based on SAS by 1-way-ANOVA, followed by Dunnett's post-hoc test against vehicle-control. Differences are considered statistically significant at the p<0.05 level.
Female dbdb-mice, received 3 and 10 μg/kg of SEQ ID NO: 11 or phosphate buffered saline (vehicle control) once daily, subcutaneously over four weeks. […] (FIG. 3).

Series [4] is described as follows: Solubility testing in buffer, HPLC-UV of supernatant. It counts as physicochemical. The following applies: buffer, target concentration 1.0 mg/mL. Here is the method:
as §1

A short description of series [5]: Pharmacokinetic testing in mice, s.c., LC/MS of plasma. It is filed as in vivo. The following applies: mouse, sc, 1 mg/kg s.c. Here is the method:
Mice were dosed 1 mg/kg subcutaneously (s.c.).
Pharmacokinetic profiles were determined as described in Methods.

For another series, the system named is female NMRI-mice. Nature of the series: Gastric emptying and intestinal passage in female NMRI-mice. It is filed as in vivo. Here is the method:
Female NMRI-mice of a body weight between 20 and 30 g were used. Mice were adapted to housing conditions for at least one week.
Mice were overnight fasted, while water remained available all the time. On the study day, mice were weighed, single-caged and allowed access to 500 mg of feed for 30 min, while water was removed. At the end of the 30 min feeding period, remaining feed was removed and weighed. Then, the test compound/reference compound or its vehicle in the control group was administered subcutaneously. 60 min later, to allow the compound to reach relevant plasma exposure, a coloured, non-caloric bolus was instilled via gavage into the stomach. After another 30 min, the animals were sacrificed and the stomach and the small intestine prepared. The filled stomach was weighed, emptied, carefully cleaned and dried and reweighed. The stomach content, calculated as weight of filled subtracted by the weight of emptied stomach, indicated the degree of gastric emptying. The small intestine was straightened without force and measured in length. Then the distance from the gastric beginning of the gut to the tip of the farthest travelled intestinal content bolus was measured. The intestinal passage was given as ratio in percent of the latter distance and the total length of the small intestine.
Statistical analyses were performed with Everstat 6.0 by 1-way-ANOVA, followed by Dunnett's as post-hoc test. Dunnett's Test was applied to compare versus vehicle control. Differences were considered statistically significant at the p<0.05 level.
Female NMRI-mice, weighing on average 25-30 g, received 1, 10 and 100 μg/kg of SEQ ID NO: 11, or phosphate buffered saline (vehicle control) subcutaneously, 30 min prior to the administration of the coloured bolus. 30 min later, the assessment of stomach contents and intestinal passage was done (FIG. 8).

Series [6] addresses T1, human GLP-1 receptor (hGLP-1 R) (Homo sapiens, UniProt P43220).
T1 construct: expressed in transfected cells
The experiment in a line: cAMP response (HTRF) of HEK-293 cells stably expressing human GLP-1 receptor. It counts as cell-based. The following applies: Table 7; cAMP formation. Here is the method:
cAMP content of cells was determined using a kit from Cisbio Corp. (cat. no. 62AM4PEC) based on HTRF (Homogenous Time Resolved Fluorescence). For preparation, cells were split into T175 culture flasks and grown overnight to near confluency in medium (DMEM/10% FBS). Medium was then removed and cells washed with PBS lacking calcium and magnesium, followed by proteinase treatment with accutase (Sigma-Aldrich cat. no. A6964). Detached cells were washed and resuspended in assay buffer (1×HBSS; 20 mM HEPES, 0.1% BSA, 2 mM IBMX) and cellular density determined. They were then diluted to 400000 cells/ml and 25 μl-aliquots dispensed into the wells of 96-well plates. For measurement, 25 μl of test compound in assay buffer was added to the wells, followed by incubation for 30 minutes at room temperature.

T1 sequence (P43220 24-463): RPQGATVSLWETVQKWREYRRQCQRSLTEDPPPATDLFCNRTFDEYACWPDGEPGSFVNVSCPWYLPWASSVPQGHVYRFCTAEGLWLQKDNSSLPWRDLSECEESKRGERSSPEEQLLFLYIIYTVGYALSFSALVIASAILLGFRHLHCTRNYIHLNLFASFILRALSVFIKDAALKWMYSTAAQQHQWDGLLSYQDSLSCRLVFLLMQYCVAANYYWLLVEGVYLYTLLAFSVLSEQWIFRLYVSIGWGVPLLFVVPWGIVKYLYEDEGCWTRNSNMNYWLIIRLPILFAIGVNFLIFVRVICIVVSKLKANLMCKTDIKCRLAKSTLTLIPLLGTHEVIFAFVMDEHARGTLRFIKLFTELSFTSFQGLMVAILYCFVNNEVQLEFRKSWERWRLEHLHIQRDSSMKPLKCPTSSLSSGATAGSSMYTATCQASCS

`CCCCCCCCCCCCCCCC(=O)N[C@@H](CCC(=O)NCCCC[C@H](NC(=O)[C@H](CCC(N)=O)NC(=O)[C@@H](NC(=O)[C@H](CO)NC(=O)[C@H](CC(C)C)NC(=O)[C@H](CC(=O)O)NC(=O)[C@H](CO)NC(=O)[C@@H](NC(=O)[C@H](Cc1ccccc1)NC(=O)[C@@H](NC(=O)CNC(=O)[C@H](CCC(=O)O)NC(=O)C(C)(C)NC(=O)[C@@H](N)Cc1ccc(O)cc1)[C@@H](C)O)[C@@H](C)O)[C@@H](C)CC)C(=O)N[C@@H](CCC(=O)O)C(=O)N[C@@H](CCC(=O)O)C(=O)N[C@@H](CCCNC(=N)N)C(=O)N[C@@H](C)C(=O)N[C@@H](C)C(=O)N[C@@](C)(CCCCN)C(=O)N[C@@H](CCC(=O)O)C(=O)N[C@@H](Cc1ccccc1)C(=O)N[C@H](C(=O)N[C@@H](CCC(=O)O)C(=O)N[C@@H](Cc1c[nH]c2ccccc12)C(=O)N[C@@H](CC(C)C)C(=O)N[C@@H](CCCCN)C(=O)N[C@@H](CC(N)=O)C(=O)N[C@H](C(=O)NCC(=O)N1CCC[C@H]1C(=O)N[C@@H](CO)C(=O)N[C@@H](CO)C(=O)NCC(=O)N[C@@H](C)C(=O)N1CCC[C@H]1C(=O)N1CCC[C@H]1C(=O)N1CCC[C@H]1C(=O)N[C@@H](CO)C(N)=O)[C@@H](C)O)[C@@H](C)CC)C(=O)O` [SEQ ID NO: 11, Y-Aib-E-G-T-F-T-S-D-L-S-I-Q-K(γE-x53)-E-E-R-A-A-(S)MeLys-E-F-I-E-W-L-K-N-T-G-P-S-S-G-A-P-P-P-S-NH2] (H-Y[Aib]EGTFTSDLSIQK([γGlu-Palmitoyl])EERAA[αMeK]EFIEWLKNTGPSSGAPPPS-NH2): in series [1] (pH 4.5), the “Stability (pH 4.5)” value is 100.0%. Also, the “Stability (pH 7.4)” value in series [1] (pH 7.4) is listed as 99.0%. The “maximal effect, glucose reduction” value in series [2] is approximately 11 mmol/L. For the same compound, the oral glucose tolerance result in series [3] (4th week, 2 g/kg oral glucose) is recorded as “improved oral glucose tolerance”. Moreover, the “non-fasted glucose compared to vehicle control” value in series [3] (four weeks) was “reduced statistically significant”. Besides, the “HbA1c compared to vehicle control” value in series [3] (four weeks, p<0.05) was “prevented an increase of HbA1c in a statistical significant manner”. Further, in series [3] (oral glucose tolerance test, p<0.05), the “reduction of AUC under the glucose curve compared to vehicle control” value is on record as “reached statistical significance”. The solubility at 2 h in series [4] (pH 4.5, read-out: Solubility (pH 4.5)) came out at 964 µg/mL (≈ 208 µM); in series [4] (pH 7.4, read-out: Solubility (pH 7.4)), 900 µg/mL (≈ 194 µM). Also, in series [5], the Cmax is 5940 ng/mL. Further, in series [5], the half-life was 4.3 h. Moreover, the “increase of remaining gastric contents” value in the series on female NMRI-mice (1 μg/kg s.c.) worked out at 17%; with female NMRI-mice (10 μg/kg s.c.) it was 97%; with female NMRI-mice (100 μg/kg s.c.), 106%. Besides, the “reduction of intestinal passage” value in the series on female NMRI-mice (1 μg/kg s.c.) is given as 44%; in the series on female NMRI-mice (10 μg/kg s.c.) it was 68%; in the series with female NMRI-mice (100 μg/kg s.c.) it was 69%. The compound also showed an EC50 in series [6] of 5.1 pM.
